From BindingDB's records for doi:10.1016/j.bmcl.2003.08.056 (Merck Research Laboratories, 2003)

Experiments:
[1] = molecular target: T1, cGMP-inhibited 3',5'-cyclic phosphodiesterase 3A [388-1112] (Homo sapiens, UniProt Q14432); assay: PDE SPA Enzyme Inhibition Assay
T1 construct: 388-1112
Procedure: (§1) PDE activity was monitored by measuring the hydrolysis of [3H]-cAMP to [3H]-AMP using scintillation proximity assay (SPA). [3H]-AMP was captured by the SPA beads, and quantified on a TopCount plate reader. Data was analyzed in Graph Pad Prism software.

[2] = molecular target: T2, cGMP-inhibited 3',5'-cyclic phosphodiesterase 3B [387-1112] (Homo sapiens, UniProt Q13370); assay: PDE SPA Enzyme Inhibition Assay
T2 construct: 387-1112
T2 sequence (Q13370 387-1112): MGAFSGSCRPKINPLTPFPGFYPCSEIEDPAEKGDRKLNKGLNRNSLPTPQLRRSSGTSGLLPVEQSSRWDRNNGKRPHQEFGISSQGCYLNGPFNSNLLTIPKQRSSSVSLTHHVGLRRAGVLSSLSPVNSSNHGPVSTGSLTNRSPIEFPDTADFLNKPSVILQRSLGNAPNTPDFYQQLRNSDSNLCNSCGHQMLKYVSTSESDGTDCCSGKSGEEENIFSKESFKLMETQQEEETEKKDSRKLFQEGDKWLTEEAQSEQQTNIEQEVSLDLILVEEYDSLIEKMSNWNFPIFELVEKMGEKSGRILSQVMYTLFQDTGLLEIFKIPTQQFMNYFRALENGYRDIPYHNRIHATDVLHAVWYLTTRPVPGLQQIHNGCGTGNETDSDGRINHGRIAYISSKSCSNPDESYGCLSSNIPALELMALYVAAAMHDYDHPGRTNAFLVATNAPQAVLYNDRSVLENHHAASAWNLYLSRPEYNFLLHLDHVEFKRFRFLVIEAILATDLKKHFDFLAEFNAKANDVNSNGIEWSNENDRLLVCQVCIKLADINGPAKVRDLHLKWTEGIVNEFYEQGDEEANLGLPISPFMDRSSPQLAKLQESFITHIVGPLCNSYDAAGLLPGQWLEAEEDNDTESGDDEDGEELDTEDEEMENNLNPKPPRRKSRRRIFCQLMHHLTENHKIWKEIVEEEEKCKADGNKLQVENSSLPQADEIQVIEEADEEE
Procedure: as §1

T1 sequence (Q14432 388-1112): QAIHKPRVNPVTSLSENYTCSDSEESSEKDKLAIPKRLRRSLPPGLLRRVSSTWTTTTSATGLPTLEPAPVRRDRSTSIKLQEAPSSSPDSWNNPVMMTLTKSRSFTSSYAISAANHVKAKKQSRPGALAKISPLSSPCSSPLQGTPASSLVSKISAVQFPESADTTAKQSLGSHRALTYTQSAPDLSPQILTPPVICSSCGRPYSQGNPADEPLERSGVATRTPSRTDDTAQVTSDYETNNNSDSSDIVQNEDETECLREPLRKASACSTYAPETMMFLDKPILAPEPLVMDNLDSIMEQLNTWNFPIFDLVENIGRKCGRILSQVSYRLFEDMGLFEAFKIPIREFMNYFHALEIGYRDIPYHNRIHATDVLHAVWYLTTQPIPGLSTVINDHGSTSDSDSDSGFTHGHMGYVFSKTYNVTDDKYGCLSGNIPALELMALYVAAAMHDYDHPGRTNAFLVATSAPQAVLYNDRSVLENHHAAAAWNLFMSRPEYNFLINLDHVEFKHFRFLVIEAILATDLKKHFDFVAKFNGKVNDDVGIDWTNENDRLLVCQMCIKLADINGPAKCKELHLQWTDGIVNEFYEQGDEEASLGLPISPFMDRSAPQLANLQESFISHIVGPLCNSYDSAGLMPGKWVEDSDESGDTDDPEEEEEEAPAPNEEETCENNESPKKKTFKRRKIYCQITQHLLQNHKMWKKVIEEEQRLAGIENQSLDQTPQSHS

Row | SMILES | IC50 [1] [nM] | IC50 [2] [nM] | IC50 ([2]; pH 7.5, 22 °C) [nM]
1 | CC1(C)C(=O)NN=C1c1ccc(NC2=C(Cc3cccc(C#N)c3)C(=O)CCC2)c(F)c1F [3-[(2-{[4-(4,4-dimethyl-5-oxo-4,5-dihydro-1H-pyrazol-3-yl)-2,3-difluorophenyl]amino}-6-oxocyclohex-1-en-1-yl)methyl]benzonitrile] | 7.6 | 0.33 | 
2 | CC1CC(=O)NN=C1c1ccc(NC2=C(Cc3ccccc3)C(=O)CCC2)c(F)c1 (stereo not given) [6-{4-[(2-benzyl-3-oxocyclohex-1-en-1-yl)amino]-3-fluorophenyl}-5-methyl-2,3,4,5-tetrahydropyridazin-3-one] | 1.2 | 0.26 | 
3 | Cc1cc(C2=NNC(=O)CC2C)ccc1NC1=C(Cc2ccccc2)C(=O)CCC1 (stereo not given) [6-{4-[(2-benzyl-3-oxocyclohex-1-en-1-yl)amino]-3-methylphenyl}-5-methyl-2,3,4,5-tetrahydropyridazin-3-one] | 3.7 | 0.61 | 
4 | C[C@@H]1CC(=O)NN=C1c1ccc(NC2=C(Cc3cccc(-c4cccc([N+](=O)[O-])c4)c3)C(=O)CCC2)cc1 [(5R)-5-methyl-6-{4-[(2-{[3-(3-nitrophenyl)phenyl]methyl}-3-oxocyclohex-1-en-1-yl)amino]phenyl}-2,3,4,5-tetrahydropyridazin-3-one] | 0.11 |  | 0.049
5 | C[C@@H]1CC(=O)NN=C1c1ccc(NC2=C(Cc3cccc(-c4ccsc4)c3)C(=O)CCC2)cc1 [(5R)-5-methyl-6-{4-[(3-oxo-2-{[3-(thiophen-3-yl)phenyl]methyl}cyclohex-1-en-1-yl)amino]phenyl}-2,3,4,5-tetrahydropyridazin-3-one] | 0.11 |  | 0.068
